Where a name gives a salt, the structure may show the parent alone. Read-outs that look alike come from different tables or passages of the source.
How the values were obtained:
[1] = test system: human Liver-Chip (primary human hepatocytes); assay: Liver-Chip albumin production in top channel effluent (ELISA); assay type: cell-based; details: expanded drug list; lowest multiplier causing a 50% reduction in albumin production; donor 1
Text: (§1) Cycles 1 to 4 tested 6–8 concentrations in duplicate for each of 10–13 drugs. To determine which sampling strategy was optimal for cycles 1 to 4 (16 doses × 1 replicate, 8 × 2, 5 × 3, or 4 × 4), we generated three different “dose-response” synthetic datasets, each distorted by different noise levels (low, medium, or high). For each of these datasets, we performed curve-fitting analyses and calculated the Root Mean Square Error between the “true” and estimated IC50 parameter. […] Some drugs were also repeated across cycles (on different donors or at different concentrations) to ensure experimental robustness. However, to replicate a more typical study design likely to be carried out by scientists in the pharmaceutical industry, we created cycle 5 with 6 drugs, where each was tested in 4 concentrations in triplicate. For each cycle, chips were dosed with drug over 8 days (referred to as Day 0 through Day 7).
(§2) The drug dosing concentrations were determined from the unbound human Cmax of each drug. First, the expected fraction of drug unbound in media with 2% FBS was extrapolated from plasma binding data for each drug. Dosing concentrations were then back calculated such that the unbound fraction in media would reflect relevant multiples of unbound human Cmax (Supplementary Data 1).
(§3) On the first dosing day (Day 0), all chips were imaged using the ECHO microscope. Five hundred microliters of effluent was collected from all four reservoirs of the pod and placed in a labeled 96-well plate. After collection, all the remaining media was carefully aspirated before dosing with 3.8 mL of corresponding dosing solution. Dosing occurred on study days 0, 2, and 4 for chips flowing at 30 µL/h, and on days 0, 1, 2, 3, 4, 5, and 6 for chips flowing at 150 µL/h. Effluent collection occurred on days 1, 3, and 7.
(§4) Top channel outlet effluents were analyzed to quantify albumin and alanine transaminase (ALT) levels on days 1, 3, and 7 using sandwich ELISA kits (Abcam, Albumin ab179887, ALT ab234578) according to vendor-provided protocols. Frozen (−80 °C) effluent samples were thawed overnight at 4 °C prior to assay. The Hamilton Vantage liquid handling platform was used to manage effluent dilutions (1:500 for albumin, neat for ALT), preparation of standard curves, and addition of antibody cocktail. Absorbance at 450 nm was measured using the SynergyNeo Microplate Reader (BioTek).
All statistical analyses were conducted in R[21] (version 4.1.2) and figures were produced using the R package ggplot2[22] (version 3.3.5). The dose-response analysis (Fig. 4) was carried out using the popular drc R package developed by Ritz et al.[23] using the generalized log-logistic dose-response model. The error bars in Figs. 3 and 4, correspond to the standard errors of the mean. The circles in Fig. 3 correspond to the samples used to calculate the corresponding statistics. The analysis of significance in Fig. 3 was performed using paired t-test across different days (same donor) and unpaired t-test across different donors (same day). In Fig. 3 the number of samples used were n = 3 for donor two, and n = 4 for donor three. For both donors, the number of the freshly thawed hepatocyte samples used to estimate the corresponding log2(Fold Change) were n = 4. Finally, the analysis of significance in Fig. 3 was performed using paired t-test.

[2] = cited from earlier work
[3] = test system: human Liver-Chip (primary human hepatocytes); assay: Liver-Chip alanine transaminase (ALT) release in top channel effluent (ELISA); assay type: cell-based
Text: as §1, §2, §3, §4

[4] = test system: human Liver-Chip (hepatocytes and non-parenchymal cells); details: for Morphology Donor 1: human
Experimental: At least four to six brightfield images were acquired per chip for morphology analysis. […] Brightfield images were acquired across three fields of view on days 1, 3, and 7 for each cycle. Cytotoxicity classification was performed while acquiring images for both NPCs and hepatocytes. Images were then scored zero to four by blinded individuals (n = 2) based on severity of agglomeration of cell debris for both channels. The scoring matrix and representative images have been included in the supplement (Supplementary Fig. 1).
Hepatocyte layer on Chips
Non-parenchymal cell layer on Chips
Supplementary Figure 1. (a) Representative brightfield images to depict the cellular morphology score in the top channel of the Liver-Chip which contains hepatocytes. A score of 0 represents no hepatotoxicity detected, which is defined by 95-100% healthy hepatocyte morphology, hexagonal shape containing binucleated cells, clear cell cytoplasm, distinctive cell junctions and less than 5% dead cells. A score of 1 […]
cells. A score of 2 represents mild hepatotoxicity with > 70% monolayer of hepatocytes visible, evidence that cells have begun to lose their distinct cell junctions, many cells contain a granulated cytoplasm but < 30% are dead cells. A score of 3 represents moderate hepatotoxicity with severe granulation of cytoplasm and most of the cells have lost their junctions. Approximately 50% of the cells are considered dead. A score of 4 represents severe hepatotoxicity with agglomeration of cell debris and > 50% of the cells are considered dead. The pores on the membrane become visible as there is no longer a cellular monolayer. (b) Representative brightfield images to depict the cellular morphology score in the bottom channel of the Liver-Chip which contains non-parenchymal cells. A score of 0 represents no cytotoxicity detected, with an intact monolayer and <1% of the cells are dead. A score of 1 represents at least 90% of the monolayer is present and there are <10% dead cells. A score of 2 represents mild cytotoxicity with > 80% of the monolayer present and < 20% are dead cells. A score of 3 represents moderate cytotoxicity with > 50% of the monolayer present and < 50% are dead cells. A score of 4 represents severe cytotoxicity with > 50% of the cells are considered dead. (bar, 50 μm). […]

[5] = test system: human Liver-Chip (hepatocyte layer); assay: Liver-Chip immunofluorescence imaging (caspase 3/7, TMRM, AdipoRed/LipidTOX); assay type: cell-based
Experimental: Chips were detached from pods and washed once with PBS. […] Afterwards, chips were washed with PBS and stored at 4 °C until staining. Following fixation, chips corresponding to low, medium, and high concentrations from each group were cut in half with a razor blade perpendicular to the co-culture channels. One half was used in the following staining protocol, while the other half was stored for future staining. All stains and washes utilized the bubble method, in which a small amount of air is flowed through the channel prior to bulk wash media to prevent a liquid-liquid dilution of the staining solution. […] Following 15 minutes of incubation at room temperature, each channel was washed with 200 µL of PBS (alternating channels, 2× for top and 3× for bottom). As an alternative lipid accumulation marker, 100 µL of HCS LipidTOX Deep Red (ThermoFisher, H34477) was diluted 1:1000 v/v in PBS with NucBlue counterstain and added to the top channel. After a 30 min incubation at room temperature, the chips were again allowed to reach room temperature before the channels were alternatively washed with 200 µL of PBS, the bottom channel undergoing three washes and the top channel undergoing two. Chips were then imaged using the Opera Phenix. Following lipid and DAPI staining and imaging, chips were stained with a […] (MRP2) antibody to visualize the bile canalicular structures characteristic of healthy Liver-Chips. […] Then, each channel was washed with 200 µL of PBS (alternating channels, 2× for top and 3× for bottom). […] Next, primary antibody Mouse anti-MRP2 (Abcam, ab3373) was prepared 1:100 in the original blocking buffer, diluted 1:4 in PBS. 100 µL of solution was added to each channel, and chips were stored overnight at 4 °C. The following day, each channel was washed with 200 µL of PBS (alternating channels, 2× for top and 3× for bottom). […] 100 µL of solution was added to each channel and chips incubated at room temperature, protected from light, for two hours. Then, each channel was washed with 200 µL of PBS (alternating channels, 2× for top and 3× for bottom). Chips were imaged immediately or stored at 4 °C until ready for imaging on the Opera Phenix. Chip replicates designated for live cell imaging were washed with PBS utilizing the bubble method. Chips were then cut in half perpendicular to the co-culture channels. […] The bottom chips halves were stained with NucBlue (Thermo) to visualize nuclei and Tetramethylrhodamine, methyl ester (TMRM) (ThermoFisher, I34361) to visualize active mitochondria. This staining panel was prepared in PBS with 5% FBS, with NucBlue at 2 drops per mL and TMRM at a 1:1000 ratio in original blocking buffer, diluted 1:4 in PBS. Chips were incubated in the dark at 37 °C for 30 min, and then each channel was washed with 200 µL of PBS (alternating channels, 2× for top and 3× for bottom). The chips were kept at 37 °C, protected from light, until ready for imaging with the Opera Phenix. Fluorescent confocal image acquisition was performed using the Opera Phenix High-Content Screening System and Harmony 4.9 Imaging and Analysis Software (PerkinElmer). Before acquisition, the Phenix internal environment was set to 37 °C and 5% CO2. […] Whole chips were placed directly into each slot, while top and bottom half chips were matched and combined in one chip slot. Chips were aligned flush with the adapter and one another. Any bubbles identified from visual inspection were washed out with PBS. Once ready, the stained chips were covered with transparent plate film to seal channel ports and loaded into the Phenix. […] Z-stacks were generated with 3.6 µm between slices for 28–32 planes so that the epithelium was located around the center of the stack. […] Raw images from fixed and live imaging were exported in TIFF format from the Harmony software. Using scripts written for FIJI (ImageJ), TIFFs across three color channels and multiple z-stacks were compiled into composite images for each field of view in each chip. […]

human Liver-Chip = assay: Liver-Chip DILI prediction: minimum toxic concentration and margin of safety (MOS)-like figure; details: free IC50 concentration in the assay divided by total concentration of drug in human plasma at Cmax;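 further: Toxic concentration is the lowest across albumin IC50 and ALT and morphology endpoints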
Text: Because the fundamental principles of drug action dictate that free (unbound) drug concentrations drive drug effects, we explored an alternative methodology for calculating the MOS-like values by accounting for protein binding using a previously reported approach. Accordingly, we reanalyzed the findings for the 27 drugs in our study by accounting for protein binding.

[6] = test system: 3D spheroid cultures of primary human hepatocytes; details: cited from earlier work
[7] = test system: clinical drug-induced liver injury; details: clinical DILI severity category 1 to 5; cited from earlier work
[8] = plasma, cited from earlier work
[9] = human, total plasma Cmax, ref Proctor, W.R. et al. (29)

For `C[C@]12CC[C@@H]3c4ccc(O)cc4CC[C@H]3[C@@H]1CC[C@@H]2O` [Beta-Estradiol], the “Albumin IC50 Donor 1” value [1] is given as >300 unbound human Cmax multiplier and the “Human Cmax Total” value ([2]; human, total plasma Cmax, ref Sivapalasingam, S. & Steigbigel, N. H. (67)) is given as 0.0006 µM.

In the case of `O=C1CC2(CCCC2)CC(=O)N1CCCCN1CCN(c2ncccn2)CC1` [Buspirone], the “ALT Donor 1” value ([3]; lowest concentration causing an increase in ALT protein) is reported as > 300 multiples of the unbound human Cmax, the “Morphology Donor 1” value [4] is reported as >300 multiples of the unbound human Cmax and the “IF imaging Donor 1” value ([5]; matched pair analysis) is reported as “Apoptosis”. The “Chip MOS donor 1” value (human Liver-Chip) was >15, the “Human Cmax Total” value [2, 9] was 0.009 µM and the “Spheroid MOS” value ([6]; 3D hepatic spheroids, previously published data) was 16,300. The Spheroid false negative ([6]; Yes/No, also No for drugs not tested in spheroid) was “No” and the “Garside DILI rank” value [7] was 4.

In the case of `CN(C)CCC(c1ccc(Cl)cc1)c1ccccn1` (stereo not shown) [Chlorpheniramine maleate], the “Human Cmax Total” value [2, 9] is given as 0.04 µM.

In the case of `CN(C)CCC(c1ccc(Cl)cc1)c1ccccn1` (stereo not shown) [Chlorpheniramine], the “Chip MOS donor 1” value (human Liver-Chip) is given as >200 and the “Garside DILI rank” value [7] is given as 3.

With `CN1CCN(C2=Nc3cc(Cl)ccc3Nc3ccccc32)CC1` [Clozapine] the “Chip MOS both donors” value (human Liver-Chip; both donors) was 1.8, the “Chip MOS donor 1” value (human Liver-Chip) was 1.8 and the “Chip MOS donor 2” value (human Liver-Chip; donor 2) was 5. For the same compound, the “Human Cmax Total” value [2, 9] was 2.4 µM and the “Expected Fraction Unbound in Plasma” value ([8]; ref Lau, S.W.J. (65)) was 0.055.

In the case of `O=C(O)Cc1ccccc1Nc1c(Cl)cccc1Cl` [Diclofenac sodium], the “Human Cmax Total” value [2, 9] is given as 10.1 µM and the “Expected Fraction Unbound in Plasma” value ([8]; ref Lau, S.W.J. (65)) is given as 0.005.

In the case of `O=C(O)Cc1ccccc1Nc1c(Cl)cccc1Cl` [Diclofenac], the “ALT change in words” value ([3]; Liver-Chip effluent) is reported as “no elevation of ALT”, the “ALT Donor 1” value ([3]; expanded drug list, lowest concentration causing an increase in ALT release) is reported as > 1000 unbound human Cmax multiplier and the “Morphological injury score change in words” value [4] is reported as “concentration and time-dependent changes”. The “Morphology Donor 1” value [4] was 1000 unbound human Cmax multiplier, the “Immunofluorescence staining result in words” value ([5]; caspase 3/7 (apoptosis) or TMRM (mitotoxicity), 7 days) was “apoptosis-mediated cell death” and the “Immunofluorescent findings, donor one (Supplementary Figure 3)” value ([5]; day 7 post-drug administration, hepatocyte layer, top channel, donor one) was “Apoptosis”. The “IF imaging Donor 1” value ([5]; expanded drug list) was “Apoptosis”, the “Chip MOS donor 1” value (human Liver-Chip) was 1.8 and the “Spheroid MOS” value [6] was 6.1.

In the case of `CCc1nn(CCCN2CCN(c3cccc(Cl)c3)CC2)c(=O)n1CCOc1ccccc1` [Nefazodone hydrochloride], the “Human Cmax Total” value [2, 9] is given as 4.3 µM.

In the case of `Cc1cc2c(cc1CC(=O)c1sccc1S(=O)(=O)[N-]c1onc(C)c1Cl)OCO2.[Na+]` [Sitax(s)entan sodium salt], the “Human Cmax Total” value ([2]; human, total plasma Cmax, ref National Center for Biotechnology Information (73)) is listed as 28.6 µM and the “Expected Fraction Unbound in Plasma” value ([8]; reference data from the literature, no reference) is listed as 0.01.

In the case of `N[C@@H]1[C@H]2CN(c3nc4c(cc3F)c(=O)c(C(=O)O)cn4-c3ccc(F)cc3F)C[C@@H]12` [Trovafloxacin mesylate], the “Human Cmax Total” value ([2]; human therapeutic total plasma Cmax from literature, ref Xu, J. J. et al. (36)) is given as 5 µM and the “Human Cmax Total” value ([2]; human, total plasma Cmax, ref Xu, J. J. et al. (36)) is given as 5 µM.
